Measurements reported in ChEMBL document CHEMBL2424528, “Novel tetrahydropyran analogs as dipeptidyl peptidase IV inhibitors: Profile of clinical candidate (2R,3S,5R)-2- (2,5-difluorophenyl)-5-(4,6-dihydropyrrolo [3,4-c]pyrazol-5-(1H)-yl)tetrahydro-2H-pyran-3-amine (23) [corrected]” (Bioorg Med Chem Lett, 2013).
Blank lines part the entries; values can stand above or below the compound they belong to. Calls of active or inactive are those of the source. The rule behind the calls is not given here.

Experiments:
[1] = biological target: Voltage-gated inwardly rectifying potassium channel KCNH2 (Homo sapiens, UniProt Q12809); assay: Inhibition of human ERG channel
Canis familiaris [2] = assay: Cardiotoxicity in cardiovascular dog model assessed as QTc prolongation at 3 mg/kg; assay type: toxicity, organism-based, Canis lupus familiaris, Heart; design: dose 3 mg/kg; conditions: in vivo
[3] = Dissociation constant, pKa of the compound; assay type: physicochemical
Dipeptidyl peptidase 8 = Dipeptidyl peptidase 8 (Homo sapiens, UniProt Q6V1X1); assay: Inhibition of human DPP8
Prolyl endopeptidase FAP = biological target: T1, Prolyl endopeptidase FAP (Homo sapiens, UniProt Q12884); assay: Inhibition of human FAP
T1 sequence (Q12884 whole entry): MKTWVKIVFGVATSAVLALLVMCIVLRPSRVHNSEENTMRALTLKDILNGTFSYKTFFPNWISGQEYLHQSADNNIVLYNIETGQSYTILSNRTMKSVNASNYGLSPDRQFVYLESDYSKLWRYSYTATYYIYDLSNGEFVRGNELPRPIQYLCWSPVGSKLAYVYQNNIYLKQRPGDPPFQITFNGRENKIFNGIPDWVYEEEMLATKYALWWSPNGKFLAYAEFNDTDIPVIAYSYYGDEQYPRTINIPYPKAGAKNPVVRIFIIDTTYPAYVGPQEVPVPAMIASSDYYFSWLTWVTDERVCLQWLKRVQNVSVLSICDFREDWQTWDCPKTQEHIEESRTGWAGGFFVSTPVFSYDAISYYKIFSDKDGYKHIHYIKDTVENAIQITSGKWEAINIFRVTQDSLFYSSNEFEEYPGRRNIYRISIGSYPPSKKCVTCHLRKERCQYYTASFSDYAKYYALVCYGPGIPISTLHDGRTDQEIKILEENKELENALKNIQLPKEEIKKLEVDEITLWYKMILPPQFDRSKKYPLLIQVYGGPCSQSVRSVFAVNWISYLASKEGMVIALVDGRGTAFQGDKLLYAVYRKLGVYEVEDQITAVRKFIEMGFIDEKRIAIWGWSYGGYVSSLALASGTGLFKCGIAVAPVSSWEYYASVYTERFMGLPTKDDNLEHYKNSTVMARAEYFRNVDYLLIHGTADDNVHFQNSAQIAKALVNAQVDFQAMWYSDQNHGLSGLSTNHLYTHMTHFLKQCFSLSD

Dipeptidyl peptidase 2 = Dipeptidyl peptidase 2 (Homo sapiens, UniProt Q9UHL4); assay: Inhibition of QPP (unknown origin)
Canis familiaris [4] = assay: Cardiotoxicity in dog model assessed as QTc prolongation up to 30 mg/kg; assay type: toxicity, organism-based, Canis lupus familiaris; design: dose 30 mg/kg; conditions: in vivo
[5] = Plasma clearance in rat at 1 mg/kg, iv and 2 mg/kg, po; assay type: ADME, organism-based
[6] = Plasma concentration in lean mouse at 0.3 mg/kg administered 10 mins prior to dextrose challenge; assay type: ADME, organism-based; design: dose 0.3 mg/kg
Rattus norvegicus = assay: Dose normalized AUC in rat at 2 mg/kg, po; assay type: ADME, organism-based; design: dose 2 mg/kg, route oral; conditions: in vivo
[7] = Oral bioavailability in rat at 2 mg/kg; assay type: ADME, organism-based; conditions: in vivo
Mus musculus [8] = assay: Antidiabetic activity in orally dosed lean mouse assessed as reduction in blood glucose excursion administered 1 hr prior to dextrose challenge by oral glucose tolerance test; assay type: functional, organism-based
Mus musculus [9] = assay: Antidiabetic activity in lean mouse assessed as reduction in blood glucose AUC at 0.1 mg/kg, po administered 1 hr prior to dextrose challenge by oral glucose tolerance test; assay type: functional; design: scale not given: the % may be the effect or the level left
[10] = biological target: Voltage-dependent L-type calcium channel subunit alpha-1C (Homo sapiens, UniProt Q13936); assay: Inhibition of Cav1.2 channel (unknown origin)
[11] = Inhibition of cytochrome P450 (unknown origin); assay type: ADME; conditions: human
[12] = Volume of distribution at steady state in beagle dog at 1 mg/kg, iv and 2 mg/kg, po; assay type: ADME, organism-based, Canis lupus familiaris; conditions: in vivo, read-out: Vdss
[13] = Tmax in rhesus monkey at 1 mg/kg, iv and 2 mg/kg, po; assay type: ADME, organism-based, Macaca mulatta; conditions: in vivo
[14] = Volume of distribution at steady state in rhesus monkey at 1 mg/kg, iv and 2 mg/kg, po; assay type: ADME, organism-based, Macaca mulatta; conditions: in vivo, read-out: Vdss
Mus musculus [15] = assay: Antidiabetic activity in wild type lean mouse assessed as inhibition of blood glucose excursion at 3 mg/kg administered 1 hr prior to dextrose challenge by oral glucose tolerance test; assay type: functional
Mus musculus [16] = species: Mus musculus; assay: Induction in plasma GLP-1 level in lean mouse; assay type: functional, organism-based
Mus musculus [17] = assay: Antidiabetic activity in lean mouse assessed as reduction in blood glucose AUC at 3 mg/kg, po administered 1 hr prior to dextrose challenge by oral glucose tolerance test; assay type: functional; design: scale not given: the % may be the effect or the level left
[18] = Volume of distribution at steady state in rat at 1 mg/kg, iv and 2 mg/kg, po; assay type: ADME, organism-based; conditions: in vivo, read-out: Vdss
[19] = Cmax in rhesus monkey at 2 mg/kg, po; assay type: ADME, organism-based, Macaca mulatta; design: dose 2 mg/kg, route oral; conditions: in vivo
[20] = Terminal half life in rhesus monkey at 1 mg/kg, iv and 2 mg/kg, po; assay type: ADME, organism-based, Macaca mulatta; conditions: in vivo, read-out: beta t1/2 (converted)
Mus musculus [21] = assay: Antidiabetic activity in DPP-4i-deficient lean mouse assessed as inhibition of blood glucose excursion at 3 mg/kg administered 1 hr prior to dextrose challenge by oral glucose tolerance test relative to control; assay type: functional, organism-based; design: dose 3 mg/kg
[22] = Tmax in rat at 1 mg/kg, iv and 2 mg/kg, po; assay type: ADME, organism-based; conditions: in vivo
Rhesus monkey = assay: Dose normalized AUC in rhesus monkey at 2 mg/kg, po; assay type: ADME, organism-based, Macaca mulatta; design: dose 2 mg/kg, route oral; conditions: in vivo
[23] = Cmax in beagle dog at 2 mg/kg, po; assay type: ADME, organism-based, Canis lupus familiaris; design: dose 2 mg/kg, route oral; conditions: in vivo
[24] = Oral bioavailability in rhesus monkey at 2 mg/kg; assay type: ADME, organism-based, Macaca mulatta; conditions: in vivo
[25] = Plasma clearance in beagle dog at 1 mg/kg, iv and 2 mg/kg, po; assay type: ADME, organism-based, Canis lupus familiaris
Mus musculus [26] = assay: In vivo inhibition of DPP4 in lean mouse model at 0.3 mg/kg administered 10 mins prior to dextrose challenge; assay type: functional; design: scale not given: the % may be the effect or the level left
[27] = Cmax in rat at 2 mg/kg, po; assay type: ADME, organism-based; design: dose 2 mg/kg, route oral; conditions: in vivo
Mus musculus [28] = assay: Induction in plasma GLP-1 level in lean mouse at 1 mg/kg; assay type: functional, organism-based; design: dose 1 mg/kg
Canis familiaris [29] = assay: Dose normalized AUC in beagle dog at 2 mg/kg, po; assay type: ADME, organism-based, Canis lupus familiaris; design: dose 2 mg/kg, route oral; conditions: in vivo
[30] = Terminal half life in beagle dog at 1 mg/kg, iv and 2 mg/kg, po; assay type: ADME, organism-based, Canis lupus familiaris; conditions: in vivo, read-out: beta t1/2 (converted)
Mus musculus [31] = assay: In vivo inhibition of DPP4 in lean mouse model administered 10 mins prior to dextrose challenge; assay type: functional, organism-based
[32] = Tmax in beagle dog at 1 mg/kg, iv and 2 mg/kg, po; assay type: ADME, organism-based, Canis lupus familiaris; conditions: in vivo
[33] = Terminal half life in rat at 1 mg/kg, iv and 2 mg/kg, po; assay type: ADME, organism-based; conditions: in vivo, read-out: beta t1/2 (converted)
[34] = Oral bioavailability in beagle dog at 2 mg/kg; assay type: ADME, organism-based, Canis lupus familiaris; conditions: in vivo
[35] = Plasma clearance in rhesus monkey at 1 mg/kg, iv and 2 mg/kg, po; assay type: ADME, organism-based, Macaca mulatta

Sequence of Voltage-gated inwardly rectifying potassium channel KCNH2 (Q12809 whole entry): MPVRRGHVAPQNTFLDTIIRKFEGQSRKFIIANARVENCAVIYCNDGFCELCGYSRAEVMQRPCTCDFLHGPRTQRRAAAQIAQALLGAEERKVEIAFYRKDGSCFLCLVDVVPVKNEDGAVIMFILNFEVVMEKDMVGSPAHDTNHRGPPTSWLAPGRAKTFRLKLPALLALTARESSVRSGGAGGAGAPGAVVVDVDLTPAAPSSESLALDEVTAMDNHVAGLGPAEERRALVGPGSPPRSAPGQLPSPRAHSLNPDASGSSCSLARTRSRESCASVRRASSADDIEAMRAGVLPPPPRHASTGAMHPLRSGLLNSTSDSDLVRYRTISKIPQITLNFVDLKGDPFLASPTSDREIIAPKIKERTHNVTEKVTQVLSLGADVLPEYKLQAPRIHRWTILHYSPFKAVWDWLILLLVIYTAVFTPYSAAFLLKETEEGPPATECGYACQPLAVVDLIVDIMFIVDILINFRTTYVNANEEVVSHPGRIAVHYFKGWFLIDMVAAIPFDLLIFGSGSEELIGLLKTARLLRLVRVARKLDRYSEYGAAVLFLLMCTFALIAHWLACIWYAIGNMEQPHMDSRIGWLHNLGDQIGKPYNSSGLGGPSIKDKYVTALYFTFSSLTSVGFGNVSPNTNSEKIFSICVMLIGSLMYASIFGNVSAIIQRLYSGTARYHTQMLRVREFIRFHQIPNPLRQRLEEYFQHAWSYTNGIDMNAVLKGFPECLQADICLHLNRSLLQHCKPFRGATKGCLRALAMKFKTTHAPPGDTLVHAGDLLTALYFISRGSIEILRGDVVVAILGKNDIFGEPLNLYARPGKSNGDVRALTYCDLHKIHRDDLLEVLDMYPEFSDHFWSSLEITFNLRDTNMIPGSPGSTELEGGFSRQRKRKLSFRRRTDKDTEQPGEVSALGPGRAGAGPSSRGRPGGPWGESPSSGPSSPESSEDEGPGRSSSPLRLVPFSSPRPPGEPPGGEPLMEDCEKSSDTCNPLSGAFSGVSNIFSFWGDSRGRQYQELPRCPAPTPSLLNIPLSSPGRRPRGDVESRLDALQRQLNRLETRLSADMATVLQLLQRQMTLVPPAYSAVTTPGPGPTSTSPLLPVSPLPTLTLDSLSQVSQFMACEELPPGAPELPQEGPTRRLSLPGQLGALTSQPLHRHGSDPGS
Sequence of Dipeptidyl peptidase 8 (Q6V1X1 whole entry): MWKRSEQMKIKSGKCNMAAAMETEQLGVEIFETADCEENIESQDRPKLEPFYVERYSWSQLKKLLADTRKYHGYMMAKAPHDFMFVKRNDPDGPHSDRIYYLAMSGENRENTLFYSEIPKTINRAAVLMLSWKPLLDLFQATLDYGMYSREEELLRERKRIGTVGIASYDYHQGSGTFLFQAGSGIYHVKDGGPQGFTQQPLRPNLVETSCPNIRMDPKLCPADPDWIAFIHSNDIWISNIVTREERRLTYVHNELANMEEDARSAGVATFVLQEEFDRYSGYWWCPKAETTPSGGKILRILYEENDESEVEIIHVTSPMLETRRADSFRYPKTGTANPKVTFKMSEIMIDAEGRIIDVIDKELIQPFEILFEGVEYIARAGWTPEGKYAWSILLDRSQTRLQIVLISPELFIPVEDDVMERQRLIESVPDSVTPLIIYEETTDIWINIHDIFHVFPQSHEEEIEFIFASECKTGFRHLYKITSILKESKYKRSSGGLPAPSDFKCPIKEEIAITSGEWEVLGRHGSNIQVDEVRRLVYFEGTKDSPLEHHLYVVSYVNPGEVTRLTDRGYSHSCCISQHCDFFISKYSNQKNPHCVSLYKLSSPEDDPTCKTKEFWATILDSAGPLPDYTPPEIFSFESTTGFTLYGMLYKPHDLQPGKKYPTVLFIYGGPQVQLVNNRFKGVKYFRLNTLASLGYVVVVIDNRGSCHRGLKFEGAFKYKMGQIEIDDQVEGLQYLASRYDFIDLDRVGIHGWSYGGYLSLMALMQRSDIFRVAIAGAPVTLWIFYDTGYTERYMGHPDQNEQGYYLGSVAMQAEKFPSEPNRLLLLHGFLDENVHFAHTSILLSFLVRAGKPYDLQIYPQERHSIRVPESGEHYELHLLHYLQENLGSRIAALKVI
Sequence of Voltage-dependent L-type calcium channel subunit alpha-1C (Q13936 whole entry): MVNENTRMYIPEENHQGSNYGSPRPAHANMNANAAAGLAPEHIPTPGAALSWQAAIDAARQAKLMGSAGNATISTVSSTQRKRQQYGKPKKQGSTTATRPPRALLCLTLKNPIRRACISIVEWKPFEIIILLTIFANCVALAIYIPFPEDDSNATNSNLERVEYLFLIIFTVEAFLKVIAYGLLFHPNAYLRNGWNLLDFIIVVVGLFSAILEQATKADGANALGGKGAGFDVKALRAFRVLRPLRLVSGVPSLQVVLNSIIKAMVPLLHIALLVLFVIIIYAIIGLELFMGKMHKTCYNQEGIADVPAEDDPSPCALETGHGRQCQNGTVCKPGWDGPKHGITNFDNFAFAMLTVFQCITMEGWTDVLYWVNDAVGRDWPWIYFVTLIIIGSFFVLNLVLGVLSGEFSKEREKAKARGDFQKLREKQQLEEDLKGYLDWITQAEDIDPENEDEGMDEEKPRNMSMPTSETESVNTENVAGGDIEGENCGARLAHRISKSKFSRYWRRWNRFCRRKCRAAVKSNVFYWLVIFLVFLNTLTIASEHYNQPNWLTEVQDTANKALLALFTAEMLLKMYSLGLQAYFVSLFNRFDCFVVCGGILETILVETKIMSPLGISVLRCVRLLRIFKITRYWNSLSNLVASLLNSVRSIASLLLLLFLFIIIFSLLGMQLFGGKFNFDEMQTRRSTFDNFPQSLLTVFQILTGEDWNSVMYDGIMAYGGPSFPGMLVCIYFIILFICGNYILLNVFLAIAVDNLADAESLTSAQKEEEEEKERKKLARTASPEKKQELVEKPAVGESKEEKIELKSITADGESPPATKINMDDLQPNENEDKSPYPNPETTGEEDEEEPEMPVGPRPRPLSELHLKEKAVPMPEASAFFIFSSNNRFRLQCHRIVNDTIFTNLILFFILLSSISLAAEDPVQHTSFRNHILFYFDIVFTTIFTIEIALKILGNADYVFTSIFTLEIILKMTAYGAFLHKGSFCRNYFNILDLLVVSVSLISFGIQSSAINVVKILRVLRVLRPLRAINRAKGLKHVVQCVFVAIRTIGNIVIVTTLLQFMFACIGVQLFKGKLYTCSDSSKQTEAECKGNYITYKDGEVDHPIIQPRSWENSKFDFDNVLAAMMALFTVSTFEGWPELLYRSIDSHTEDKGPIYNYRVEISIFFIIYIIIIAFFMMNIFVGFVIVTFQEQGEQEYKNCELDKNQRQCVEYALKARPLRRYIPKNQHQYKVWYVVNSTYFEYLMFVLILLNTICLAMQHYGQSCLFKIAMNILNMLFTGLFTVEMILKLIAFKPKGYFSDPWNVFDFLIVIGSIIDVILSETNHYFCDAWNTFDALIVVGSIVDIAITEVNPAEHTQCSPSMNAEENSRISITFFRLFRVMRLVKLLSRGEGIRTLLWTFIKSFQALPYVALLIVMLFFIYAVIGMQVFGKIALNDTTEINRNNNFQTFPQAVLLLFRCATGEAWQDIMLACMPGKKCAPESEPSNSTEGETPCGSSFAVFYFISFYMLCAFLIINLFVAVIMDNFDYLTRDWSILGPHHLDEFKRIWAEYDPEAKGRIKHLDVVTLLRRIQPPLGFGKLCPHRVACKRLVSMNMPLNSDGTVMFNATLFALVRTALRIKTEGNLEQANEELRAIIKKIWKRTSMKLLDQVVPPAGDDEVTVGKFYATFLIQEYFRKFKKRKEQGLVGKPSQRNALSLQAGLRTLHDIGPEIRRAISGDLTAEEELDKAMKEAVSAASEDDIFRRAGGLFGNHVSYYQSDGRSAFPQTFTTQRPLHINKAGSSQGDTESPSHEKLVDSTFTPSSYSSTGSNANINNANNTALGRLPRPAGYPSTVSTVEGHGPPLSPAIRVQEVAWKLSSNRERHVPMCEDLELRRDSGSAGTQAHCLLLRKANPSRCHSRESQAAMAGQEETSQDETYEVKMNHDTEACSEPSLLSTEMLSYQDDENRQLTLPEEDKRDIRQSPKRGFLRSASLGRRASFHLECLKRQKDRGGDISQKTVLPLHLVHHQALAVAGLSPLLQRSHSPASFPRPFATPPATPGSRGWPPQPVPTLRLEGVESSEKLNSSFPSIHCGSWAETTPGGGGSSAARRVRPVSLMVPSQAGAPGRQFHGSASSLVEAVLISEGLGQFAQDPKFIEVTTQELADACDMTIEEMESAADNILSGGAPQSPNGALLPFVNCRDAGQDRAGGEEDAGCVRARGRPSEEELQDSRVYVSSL

Structure (SMILES): N[C@H]1C[C@@H](N2Cc3cnc(C(F)(F)F)nc3C2)CC[C@@H]1c1cc(F)c(F)cc1F
IC50 [1]: 4.8 µM
Activity (Canis familiaris [2]): > 5%
pKa [3]: 8.6

Structure (SMILES): N[C@H]1C[C@@H](N2Cc3cnc(C(F)(F)F)nc3C2)CO[C@@H]1c1cc(F)c(F)cc1F
pKa [3]: 7.3
Activity (Canis familiaris [4]): Non-toxic

Structure (SMILES): N[C@H]1C[C@@H](N2Cc3cn[nH]c3C2)CO[C@@H]1c1cc(F)c(Cl)cc1F
IC50 (Dipeptidyl peptidase 8): > 100 µM
IC50 (Prolyl endopeptidase FAP): > 100 µM

Structure (SMILES): CC1(C)c2cnc(C3CC3)nc2CN1[C@H]1CO[C@H](c2cc(F)ccc2F)[C@@H](N)C1
IC50 (Dipeptidyl peptidase 8): > 100 µM
IC50 (Prolyl endopeptidase FAP): > 100 µM

Structure (SMILES): N[C@H]1C[C@@H](N2Cc3cnc(C4CC4)nc3C2)CO[C@@H]1c1cc(F)c(F)cc1F
IC50 [1]: > 30 µM
Activity (Canis familiaris [4]): Non-toxic

Structure (SMILES): N[C@H]1C[C@@H](N2Cc3ccccc3O2)CO[C@@H]1c1cc(F)ccc1F
IC50 (Prolyl endopeptidase FAP): > 100 µM

Structure (SMILES): CC1(C)c2nc(C3CC3)ncc2CN1[C@H]1CO[C@H](c2cc(F)ccc2F)[C@@H](N)C1
IC50 (Dipeptidyl peptidase 8): > 100 µM

Structure (SMILES): N[C@@H](CC(=O)N1CCn2c(nnc2C(F)(F)F)C1)Cc1cc(F)c(F)cc1F
Activity (Mus musculus [8]): Active

Structure (SMILES): N[C@H]1C[C@@H](N2Cc3cn[nH]c3C2)CO[C@@H]1c1cc(F)c(F)cc1F
IC50 (Dipeptidyl peptidase 8): > 100 µM
IC50 (Prolyl endopeptidase FAP): > 6.4 µM

Structure (SMILES): N[C@H]1C[C@@H](N2Cc3cn[nH]c3C2)CO[C@@H]1c1cc(F)ccc1Cl
IC50 (Prolyl endopeptidase FAP): > 100 µM
IC50 (Dipeptidyl peptidase 2): > 100 µM

Structure (SMILES): N[C@H]1C[C@@H](N2Cc3ccccc3C2=O)CO[C@@H]1c1cc(F)ccc1F
IC50 (Dipeptidyl peptidase 8): > 100 µM
IC50 (Prolyl endopeptidase FAP): > 100 µM
IC50 (Dipeptidyl peptidase 2): > 100 µM

Structure (SMILES): N[C@H]1C[C@@H](N2Cc3cn[nH]c3C2)CO[C@@H]1c1ccccc1Cl
IC50 (Dipeptidyl peptidase 8): > 100 µM
IC50 (Prolyl endopeptidase FAP): > 100 µM
IC50 (Dipeptidyl peptidase 2): > 100 µM

Continued, in another order:

IC50 (Dipeptidyl peptidase 8): > 100 µM
IC50 (Prolyl endopeptidase FAP): > 100 µM
IC50 (Dipeptidyl peptidase 2): > 100 µM
Structure (SMILES): N[C@H]1C[C@@H](N2CCn3c(nnc3C(F)(F)F)C2)CO[C@@H]1c1cc(F)ccc1F

IC50 (Dipeptidyl peptidase 8): > 100 µM
IC50 (Prolyl endopeptidase FAP): > 100 µM
Structure (SMILES): N[C@H]1C[C@@H](N2Cc3cn[nH]c3C2)CO[C@@H]1c1ccc(F)cc1F

clearance [5]: 9.7 mL/min/kg
concentration at 10 min [6]: 260 nM
AUC/dose (Rattus norvegicus): 3.72 µM·h/mg/kg
bioavailability [7]: 70%
inhibition (INH) [11]: Not Active
Vd [12]: 3 L/kg
Tmax [13]: 1.1 h
Vd [14]: 4.2 L/kg
Vd [18]: 4.9 L/kg
Cmax [19]: 1480 nM
half-life [20]: 9.7 h
Tmax [22]: 0.5 h
AUC/dose (Rhesus monkey): 7.33 µM·h/mg/kg
Cmax [23]: 1920 nM
bioavailability [24]: 72%
clearance [25]: 2.7 mL/min/kg
Cmax [27]: 800 nM
AUC/dose (Canis familiaris [29]): 16.1 µM·h/mg/kg
half-life [30]: 13 h
Tmax [32]: 3.5 h
half-life [33]: 6.3 h
bioavailability [34]: 83%
clearance [35]: 5.2 mL/min/kg
Structure (SMILES): N[C@H]1C[C@@H](N2Cc3cn[nH]c3C2)CO[C@@H]1c1cc(F)ccc1F
Activity (Mus musculus [8]): Dose-dependent effect
Activity (Mus musculus [9]): 27%
inhibition (INH) [10]: Not Active
inhibition in vivo at 3 mg/kg (Mus musculus [15]): 53%
Activity (Mus musculus [16]): Dose-dependent effect
Activity (Mus musculus [17]): 47%
inhibition (Mus musculus [21]): inactive
inhibition (INH) ([1]; human): Not Active
Activity (Mus musculus [26]): >80%
Activity (Mus musculus [28]): Active
Activity (Mus musculus [31]): Dose-dependent effect

IC50 (Prolyl endopeptidase FAP): > 100 µM
IC50 (Dipeptidyl peptidase 2): > 100 µM
Structure (SMILES): N[C@H]1C[C@@H](N2Cc3nc(C(F)(F)F)[nH]c3C2)CO[C@@H]1c1cc(F)ccc1F

IC50 (Dipeptidyl peptidase 8): > 100 µM
IC50 (Prolyl endopeptidase FAP): > 100 µM
IC50 (Dipeptidyl peptidase 2): > 100 µM
Structure (SMILES): Cc1nc2c(o1)CN([C@H]1CO[C@H](c3cc(F)ccc3F)[C@@H](N)C1)C2
